Holding throughout (format): biochemical
One test deals with T1, JAK2 (Homo sapiens, UniProt O60674).
T1 construct: made in house; host or cells: SF9 insect cells (baculovirus)
Briefly: JAK2 inhibition (Table 4). The settings on record: read-out: JAK2 Ki.

The target of another test is T2, TYK2 (Homo sapiens, UniProt P29597).
T2 construct: made in house; host or cells: SF9 insect cells (baculovirus)
T2 sequence (P29597 873-1187): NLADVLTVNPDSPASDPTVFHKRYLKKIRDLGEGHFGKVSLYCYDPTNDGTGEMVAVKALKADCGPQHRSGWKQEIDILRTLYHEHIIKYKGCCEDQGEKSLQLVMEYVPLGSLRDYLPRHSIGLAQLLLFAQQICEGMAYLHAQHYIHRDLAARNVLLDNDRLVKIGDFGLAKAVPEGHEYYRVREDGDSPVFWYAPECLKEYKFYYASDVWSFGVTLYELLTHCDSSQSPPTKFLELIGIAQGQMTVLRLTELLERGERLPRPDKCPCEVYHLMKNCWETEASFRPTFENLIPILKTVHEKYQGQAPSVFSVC
Nature of the test: TYK2 inhibition (Table 4).

The target in a further test is T3, JAK1 (Homo sapiens, UniProt P23458).
T3 construct: made in house; host or cells: SF9 insect cells (baculovirus)
Nature of the test: JAK1 inhibition (Table 4). The settings on record: read-out: JAK1 Ki.

A further test deals with T4, JAK3 (Homo sapiens, UniProt P52333).
T4 construct: made in house; host or cells: SF9 insect cells (baculovirus)
Nature of the test: JAK3 inhibition (Table 4). As to conditions: read-out: JAK3 Ki.

T1 sequence (O60674 812-1132): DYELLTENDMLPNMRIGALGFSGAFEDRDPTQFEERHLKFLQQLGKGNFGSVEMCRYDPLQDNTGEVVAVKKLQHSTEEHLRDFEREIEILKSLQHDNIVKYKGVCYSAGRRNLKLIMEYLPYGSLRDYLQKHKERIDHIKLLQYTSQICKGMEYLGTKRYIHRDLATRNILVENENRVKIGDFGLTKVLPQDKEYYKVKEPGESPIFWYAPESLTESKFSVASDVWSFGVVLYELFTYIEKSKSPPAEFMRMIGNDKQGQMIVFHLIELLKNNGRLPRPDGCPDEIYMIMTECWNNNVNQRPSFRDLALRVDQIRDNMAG
T3 sequence (P23458 852-1154): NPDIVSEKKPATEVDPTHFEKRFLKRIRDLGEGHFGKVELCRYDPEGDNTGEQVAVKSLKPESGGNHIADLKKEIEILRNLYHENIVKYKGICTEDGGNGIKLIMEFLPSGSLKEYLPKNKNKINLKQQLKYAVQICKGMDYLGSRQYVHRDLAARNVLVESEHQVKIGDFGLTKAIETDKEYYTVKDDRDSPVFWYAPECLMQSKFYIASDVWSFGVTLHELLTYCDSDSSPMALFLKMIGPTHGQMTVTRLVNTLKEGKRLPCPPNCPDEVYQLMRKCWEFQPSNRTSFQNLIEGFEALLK
T4 sequence (P52333 783-1124): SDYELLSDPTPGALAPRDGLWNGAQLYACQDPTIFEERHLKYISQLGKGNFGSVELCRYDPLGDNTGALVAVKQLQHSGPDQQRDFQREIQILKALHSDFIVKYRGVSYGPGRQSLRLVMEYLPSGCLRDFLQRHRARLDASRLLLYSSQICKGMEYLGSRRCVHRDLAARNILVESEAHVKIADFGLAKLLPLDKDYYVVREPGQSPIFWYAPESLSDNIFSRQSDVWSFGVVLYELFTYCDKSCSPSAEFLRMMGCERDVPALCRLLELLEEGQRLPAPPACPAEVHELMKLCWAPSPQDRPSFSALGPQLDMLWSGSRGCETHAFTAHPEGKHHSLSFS

A word on the Ki: it is the equilibrium dissociation constant of an inhibitor or competing ligand from its target. Regarding `CC(c1ccccc1)N1CCC(n2cnc3cnc4[nH]ccc4c32)CC1` (stereo not drawn) [Example 51, 1-[1-(1-Phenyl-ethyl)-piperidin-4-yl]-1,6-dihydro-1,3,5,6-tetraaza-as-indacene], the Ki worked out at 6.69 nM on JAK2, 76.6 nM at TYK2, 7.68 nM on JAK1 and 137 nM at JAK3.
The matching figures for `N#Cc1ccc(S(=O)(=O)N2CCC(n3cnc4cnc5[nH]ccc5c43)CC2)cc1` [Example 56, 4-[4-(6H-1,3,5,6-Tetraaza-as-indacen-1-yl)-piperidine-1-sulfonyl]benzonitrile]: 9.97 nM, 64.7 nM, 3.84 nM and 337 nM.
The matching figures for `CS(=O)(=O)CCN1CCC[C@@H](n2cnc3cnc4[nH]ccc4c32)C1` [Example 57, 1-[(R)-1-(2-Methanesulfonyl-ethyl)-piperidin-3-yl]-1,6-dihydro-1,3,5,6-tetraaza-as-indacene]: 9.05 nM, 45.8 nM, 5.21 nM and 12 nM.
Turning to `CS(=O)(=O)CCN1CCC(n2cnc3cnc4[nH]ccc4c32)CC1` [Example 59, 1-[1-(2-Methanesulfonyl-ethyl)-piperidin-4-yl]-1,6-dihydro-1,3,5,6-tetraaza-as-indacene], the inhibition constant (Ki) is 6.01 nM on JAK2, 30.5 nM at TYK2, 1.96 nM at JAK1 and 27.7 nM at JAK3.
For `CN(C)C(=O)CN1CCC[C@@H](n2cnc3cnc4[nH]ccc4c32)C1` [Example 60, N,N-Dimethyl-2-[(R)-3-(6H-1,3,5,6-tetraaza-as-indacen-1-yl)-piperidin-1-yl]acetamide] the same measures were 201 nM, 715 nM, 135 nM and 625 nM.
The matching figures for `COCCN1CCC[C@@H](n2cnc3cnc4[nH]ccc4c32)C1` [Example 61, 1-[(R)-1-(2-Methoxy-ethyl)-piperidin-3-yl]-1,6-dihydro-1,3,5,6-tetraaza-as-indacene]: 253 nM, 1050 nM, 153 nM and 220 nM.
For `CN(C)C(=O)CN1CCC(n2cnc3cnc4[nH]ccc4c32)CC1` [Example 62, N,N-Dimethyl-2-[4-(6H-1,3,5,6-tetraaza-as-indacen-1-yl)-piperidin-1-yl]acetamide] the same measures were 39.7 nM, 225 nM, 21.4 nM and 391 nM.
On to `COCCN1CCC(n2cnc3cnc4[nH]ccc4c32)CC1` [Example 63, 1-[1-(2-Methoxy-ethyl)-piperidin-4-yl]-1,6-dihydro-1,3,5,6-tetraaza-as-indacene], for which the Ki turned out to be 12 nM on JAK2, 73.9 nM on TYK2, 7.54 nM at JAK1 and 96.5 nM at JAK3.
The matching figures for `c1cnc(N2CCC(n3cnc4cnc5[nH]ccc5c43)CC2)nc1` [Example 64, 1-(1-Pyrimidin-2-yl-piperidin-4-yl)-1,6-dihydro-1,3,5,6-tetraaza-as-indacene]: 51.4 nM, 495 nM, 36.4 nM and 243 nM.
For `c1cc(N2CCC(n3cnc4cnc5[nH]ccc5c43)CC2)ncn1` [Example 65, 1-(1-Pyrimidin-4-yl-piperidin-4-yl)-1,6-dihydro-1,3,5,6-tetraaza-as-indacene] the same measures were 34.6 nM, 107 nM, 14.9 nM and 281 nM.
The matching figures for `c1ccc(CN2CCC(n3nnc4cnc5[nH]ccc5c43)CC2)cc1` [Example 66, 1-(1-Benzyl-piperidin-4-yl)-1,6-dihydro-1,2,3,5,6-pentaaza-as-indacene]: 9.86 nM, 240 nM, 7.15 nM and 68.3 nM.
For `Fc1cccc(CN2CCC(n3cnc4cnc5[nH]ccc5c43)CC2)c1` [Example 67, 1-[1-(3-Fluoro-benzyl)-piperidin-4-yl]-1,6-dihydro-1,3,5,6-tetraaza-as-indacene], the inhibition constant Ki at JAK2 turned out to be 1.16 nM; at TYK2, 23.6 nM; on JAK1 it was 0.75 nM; on JAK3, 9.48 nM.
For `Cn1cc(CN2CCC(n3cnc4cnc5[nH]ccc5c43)CC2)cn1` [Example 68], the Ki on JAK2 was determined as 70.7 nM; at TYK2, 1160 nM; at JAK1 it was 21 nM; at JAK3 it was 354 nM.
For `O=S(=O)(C1CC1)N1CCC(n2cnc3cnc4[nH]ccc4c32)CC1` [Example 69, 1-(1-Cyclopropanesulfonyl-piperidin-4-yl]-1,6-dihydro-1,3,5,6-tetraaza-as-indacene] the same measures were 4.41 nM, 26.6 nM, 3.44 nM and 93.3 nM.
The matching figures for `O=S(=O)(C1CC1)N1CCC[C@@H](n2cnc3cnc4[nH]ccc4c32)C1` [Example 70, (R)-1-(1-Cyclopropanesulfonyl-piperidin-3-yl]-1,6-dihydro-1,3,5,6-tetraaza-as-indacene]: 15.1 nM, 68.9 nM, 12.5 nM and 38.6 nM.
For `c1cc2c(ncc3ncn([C@@H]4CCCN(C5COC5)C4)c32)[nH]1` [Example 71, (R)-1-(1-Oxetan-3-yl-piperidin-3-yl]-1,6-dihydro-1,3,5,6-tetraaza-as-indacene] the same measures were 378 nM, 1680 nM, 264 nM and 307 nM.
Consider `c1cnc(N2CCC(n3cnc4cnc5[nH]ccc5c43)CC2)cn1` [Example 72, 1-(1-Pyrazin-2-yl-piperidin-4-yl]-1,6-dihydro-1,3,5,6-tetraaza-as-indacene], for which the Ki on JAK2 came to 10.9 nM; on TYK2 it was 56.7 nM; on JAK1, 4.26 nM; at JAK3 it was 97.8 nM.
Consider `N#Cc1cccc(S(=O)(=O)N2CCC(n3cnc4cnc5[nH]ccc5c43)CC2)c1` [Example 73, 3-[4-(6H-1,3,5,6-Tetraaza-as-indacen-1-yl)-piperidine-1-sulfonyl]benzonitrile], for which the Ki was 0.95 nM at JAK2, 6.82 nM at TYK2, 0.91 nM on JAK1 and 57.7 nM at JAK3.
For `O=C(CN1CCC(n2cnc3cnc4[nH]ccc4c32)CC1)c1ccccc1` [Example 74] the same measures were 2.98 nM, 14.2 nM, 1.25 nM and 31.9 nM.
Take `O=C(C1CC1)N1CCC[C@@H](n2cnc3cnc4[nH]ccc4c32)C1` [Example 75, Cyclopropyl-[(R)-3-(6H-1,3,5,6-tetraaza-as-indacen-1-yl)-piperidin-1-yl]methanone]: the Ki on JAK2 was found to be 8.53 nM; on TYK2 it was 19 nM; on JAK1 it was 5.89 nM; on JAK3 it was 60.7 nM.
For `O=C(CS(=O)(=O)c1ccccc1)N1CCC[C@@H](n2cnc3cnc4[nH]ccc4c32)C1` [Example 76, 2-Benzenesulfonyl-1-[(R)-3-(6H-1,3,5,6-tetraaza-as-indacen-1-yl)-piperidin-1-yl]ethanone] the same measures were 73 nM, 531 nM, 51.7 nM and 232 nM.
For `O=C(CN1CCOCC1)N1CCC(n2cnc3cnc4[nH]ccc4c32)CC1` [Example 77, 2-Morpholin-4-yl-1-[4-(6H-1,3,5,6-tetraaza-as-indacen-1-yl)-piperidin-1-yl]ethanone] the same measures were 185 nM, 1940 nM, 64.6 nM and 2160 nM.
For the compound `CS(=O)(=O)CC(=O)N1CCC[C@@H](n2cnc3cnc4[nH]ccc4c32)C1` [Example 79, 2-Methanesulfonyl-1-[(R)-3-(6H-1,3,5,6-tetraaza-as-indacen-1-yl)-piperidin-1-yl]ethanone], the inhibition constant (Ki) amounted to 22.3 nM at JAK2, 167 nM on TYK2, 15.7 nM at JAK1 and 77.1 nM at JAK3.
The matching figures for `c1ccc(CCN2CCC(n3cnc4cnc5[nH]ccc5c43)CC2)cc1` [Example 80, 1-(1-Phenethyl-piperidin-4-yl)-1,6-dihydro-1,3,5,6-tetraaza-as-indacene]: 15.5 nM, 106 nM, 5.61 nM and 163 nM.
Take `c1ccc(CN2[C@@H]3CC[C@H]2C[C@H](n2cnc4cnc5[nH]ccc5c42)C3)cc1` [Example 81]: the Ki worked out at 15.8 nM at JAK2, 222 nM at TYK2, 23 nM at JAK1 and 297 nM at JAK3.
On to `OCCc1nc2cnc3[nH]ccc3c2n1C1CCN(Cc2ccccc2)CC1` [Example 82], for which the Ki on JAK2 was 11.3 nM; at TYK2, 194 nM; on JAK1 it was 3.5 nM; at JAK3, 14.2 nM.
As for `Cn1nccc1C(=O)N1CCC(n2cnc3cnc4[nH]ccc4c32)CC1` [Example 84, (2-Methyl-2H-pyrazol-3-yl)-[4-(6H-1,3,5,6-tetraaza-as-indacen-1-yl)-piperidin-1-yl]methanone], the inhibitory constant (Ki) at JAK2 turned out to be 36.1 nM; at TYK2, 160 nM; on JAK1, 11.6 nM; on JAK3, 747 nM.

The values above are taken from patent publication US8461328B2, “Tricyclic heterocyclic compounds, compositions and methods of use thereof” (Genentech, Inc., priority 2010, dated 2013).
